# Assay results as given in ChEMBL document CHEMBL5034010, “Novel Cephalosporin Conjugates Display Potent and Selective Inhibition of Imipenemase-Type Metallo-β-Lactamases” (J Med Chem, 2021).
# Calls of active or inactive are those of the source. No cut-off for these calls is given here.
# Key:
# [1] = tested on: Klebsiella pneumoniae; assay: Substrate activity at Klebsiella pneumoniae beta-lactamase IMP-28 assessed as compound hydrolysis by measuring Km by Michaelis-Menten analysis
# [2] = tested on: Enterobacter cloacae; assay: Inhibition of Metallo-beta-lactamase IMP-1 in Enterobacter cloacae clinical isolate assessed as MIC for meropenem antibacterial activity at 64 ug/ml (Rvb =16 ug/ml); details: dose 64.0 µg/ml
# [3] = tested on: Enterobacter cloacae; assay: Inhibition of Metallo-beta-lactamase IMP-1 in Enterobacter cloacae clinical isolate assessed as fold reduction in meropenem MIC at 128 ug/ml; details: dose 128.0 µg/ml
# [4] = tested on: Escherichia coli; assay: Inhibition of Metallo-beta-lactamase VIM-2 in Escherichia coli clinical isolate assessed as MIC for meropenem antibacterial activity at 32 ug/ml (reference value: 4 ug/ml); details: dose 32.0 µg/ml
# [5] = Inhibition of Escherichia coli beta-lactamase VIM-2 using nitrocefin chromogenic substrate measured after 15 to 60 min at 25 degC by microplate reader
# [6] = tested on: Escherichia coli; assay: Inhibition of Metallo-beta-lactamase VIM-2 in Escherichia coli clinical isolate assessed as fold reduction in meropenem MIC at 64 ug/ml; details: dose 64.0 µg/ml
# [7] = tested on: Escherichia coli; assay: Antibacterial activity against beta-lactamase VIM2 producing Escherichia coli clinical isolate measured upto 128 ug/ml; format: functional, organism-based
# [8] = tested on: Klebsiella pneumoniae; assay: Antibacterial activity against beta-lactamase IMP-28 producing Klebsiella pneumoniae clinical isolate measured upto 128 ug/ml; format: functional, organism-based
# [9] = tested on: Klebsiella pneumoniae; assay: Inhibition of Metallo-beta-lactamase IMP-28 in Klebsiella pneumoniae clinical isolate assessed as MIC for meropenem antibacterial activity at 128 ug/ml (reference value: 2 ug/ml); details: dose 128.0 µg/ml
# [10] = tested on: Escherichia coli; assay: Inhibition of Metallo-beta-lactamase NDM-1 in Escherichia coli clinical isolate assessed as fold reduction in meropenem MIC at 128 ug/ml; details: dose 128.0 µg/ml
# [11] = tested on: Escherichia coli; assay: Antibacterial activity against beta-lactamase NDM1 producing Escherichia coli clinical isolate measured upto 128 ug/ml; format: functional, organism-based
# [12] = tested on: Escherichia coli; assay: Inhibition of Metallo-beta-lactamase NDM-1 in Escherichia coli clinical isolate assessed as fold reduction in meropenem MIC at 64 ug/ml; details: dose 64.0 µg/ml
# [13] = Inhibition of Klebsiella pneumoniae beta-lactamase IMP-28 using nitrocefin chromogenic substrate measured after 15 to 60 min at 25 degC by microplate reader
# [14] = tested on: Escherichia coli; assay: Inhibition of Metallo-beta-lactamase NDM-1 in Escherichia coli clinical isolate assessed as MIC for meropenem antibacterial activity at 128 ug/ml (reference value: 32 ug/ml); details: dose 128.0 µg/ml
# [15] = tested on: Klebsiella pneumoniae; assay: Inhibition of Metallo-beta-lactamase IMP-28 in Klebsiella pneumoniae clinical isolate assessed as fold reduction in meropenem MIC at 32 ug/ml; details: dose 32.0 µg/ml
# [16] = tested on: Enterobacter cloacae; assay: Inhibition of Metallo-beta-lactamase IMP-1 in Enterobacter cloacae clinical isolate assessed as fold reduction in meropenem MIC at 32 ug/ml; details: dose 32.0 µg/ml
# [17] = tested on: Enterobacter cloacae; assay: Inhibition of Metallo-beta-lactamase IMP-1 in Enterobacter cloacae clinical isolate assessed as MIC for meropenem antibacterial activity at 128 ug/ml (Rvb =16 ug/ml); details: dose 128.0 µg/ml
# [18] = tested on: Escherichia coli; assay: Inhibition of Metallo-beta-lactamase NDM-1 in Escherichia coli clinical isolate assessed as MIC for meropenem antibacterial activity at 64 ug/ml (reference value: 32 ug/ml); details: dose 64.0 µg/ml
# [19] = tested on: Klebsiella pneumoniae; assay: Inhibition of Metallo-beta-lactamase IMP-28 in Klebsiella pneumoniae clinical isolate assessed as MIC for meropenem antibacterial activity at 64 ug/ml (reference value: 2 ug/ml); details: dose 64.0 µg/ml
# [20] = tested on: Escherichia coli; assay: Inhibition of Metallo-beta-lactamase NDM-1 in Escherichia coli clinical isolate assessed as MIC for meropenem antibacterial activity at 32 ug/ml (reference value: 32 ug/ml); details: dose 32.0 µg/ml
# [21] = tested on: Klebsiella pneumoniae; assay: Inhibition of Metallo-beta-lactamase IMP-28 in Klebsiella pneumoniae clinical isolate assessed as fold reduction in meropenem MIC at 64 ug/ml; details: dose 64.0 µg/ml
# [22] = tested on: Klebsiella pneumoniae; assay: Inhibition of Metallo-beta-lactamase IMP-28 in Klebsiella pneumoniae clinical isolate assessed as fold reduction in meropenem MIC at 128 ug/ml; details: dose 128.0 µg/ml
# [23] = Inhibition of Enterobacter cloacae IMP-1 using nitrocefin chromogenic substrate measured after 15 to 60 min at 25 degC by microplate reader
# [24] = tested on: Escherichia coli; assay: Inhibition of Metallo-beta-lactamase VIM-2 in Escherichia coli clinical isolate assessed as fold reduction in meropenem MIC at 32 ug/ml; details: dose 32.0 µg/ml
# [25] = tested on: Escherichia coli; assay: Inhibition of Metallo-beta-lactamase NDM-1 in Escherichia coli clinical isolate assessed as fold reduction in meropenem MIC at 32 ug/ml; details: dose 32.0 µg/ml
# [26] = tested on: Enterobacter cloacae; assay: Inhibition of Metallo-beta-lactamase IMP-1 in Enterobacter cloacae clinical isolate assessed as MIC for meropenem antibacterial activity at 32 ug/ml (Rvb =16 ug/ml); details: dose 32.0 µg/ml
# [27] = tested on: Klebsiella pneumoniae; assay: Inhibition of Metallo-beta-lactamase IMP-28 in Klebsiella pneumoniae clinical isolate assessed as MIC for meropenem antibacterial activity at 32 ug/ml (reference value: 2 ug/ml); details: dose 32.0 µg/ml
# [28] = tested on: Klebsiella pneumoniae; assay: Substrate activity at Klebsiella pneumoniae beta-lactamase IMP-28 assessed as compound hydrolysis by measuring Kcat/Km by Michaelis-Menten analysis
# [29] = tested on: Enterobacter cloacae; assay: Antibacterial activity against beta-lactamase IMP1 producing Enterobacter cloacae clinical isolate measured upto 128 ug/ml; format: functional, organism-based
# [30] = tested on: Escherichia coli; assay: Inhibition of Metallo-beta-lactamase VIM-2 in Escherichia coli clinical isolate assessed as MIC for meropenem antibacterial activity at 64 ug/ml (reference value: 4 ug/ml); details: dose 64.0 µg/ml
# [31] = tested on: Escherichia coli; assay: Inhibition of Metallo-beta-lactamase VIM-2 in Escherichia coli clinical isolate assessed as MIC for meropenem antibacterial activity at 128 ug/ml (reference value: 4 ug/ml); details: dose 128.0 µg/ml
# [32] = tested on: Escherichia coli; assay: Inhibition of Metallo-beta-lactamase VIM-2 in Escherichia coli clinical isolate assessed as fold reduction in meropenem MIC at 128 ug/ml; details: dose 128.0 µg/ml
# [33] = tested on: Enterobacter cloacae; assay: Inhibition of Metallo-beta-lactamase IMP-1 in Enterobacter cloacae clinical isolate assessed as fold reduction in meropenem MIC at 64 ug/ml; details: dose 64.0 µg/ml
# [34] = tested on: Klebsiella pneumoniae; assay: Substrate activity at Klebsiella pneumoniae beta-lactamase IMP-28 assessed as compound hydrolysis by measuring Kcat by Michaelis-Menten analysis
# [35] = Inhibition of Escherichia coli beta-lactamase NDM-1 using nitrocefin chromogenic substrate measured after 15 to 60 min at 25 degC by microplate reader
SMILES,Km [1],MIC [2],fold change (FC) [3],MIC [4],IC50 [5],fold change (FC) [6],Activity [7],Activity [8],MIC [9],fold change (FC) [10],Activity [11],fold change (FC) [12],IC50 [13],MIC [14],fold change (FC) [15],fold change (FC) [16],MIC [17],MIC [18],MIC [19],MIC [20],other results
CC1=C(C(=O)O)N2C(=O)[C@@H](NC(=O)Cc3ccccc3)[C@H]2SC1,392 µM,16 µg/mL,1,2 µg/mL,57 µM,2,inactive,inactive,0.25 µg/mL,2,inactive,2,> 100 µM,16 µg/mL,2,1,16 µg/mL,16 µg/mL,0.5 µg/mL,16 µg/mL,fold change (FC) [21]: 4; fold change (FC) [22]: 8; IC50 [23]: > 100 µM; fold change (FC) [24]: 2; fold change (FC) [25]: 2; MIC [26]: 16 µg/mL; MIC [27]: 1 µg/mL; kcat/Km [28]: 59000 M⁻¹ s⁻¹; Activity [29]: inactive; MIC [30]: 2 µg/mL; MIC [31]: 1 µg/mL; fold change (FC) [32]: 4; fold change (FC) [33]: 1; kcat [34]: 23.3 s⁻¹
O=C(O)CSCC1=C(C(=O)O)N2C(=O)[C@@H](NC(=O)Cc3ccccc3)[C@H]2SC1,219 µM,8 µg/mL,4,2 µg/mL,53 µM,2,inactive,inactive,0.125 µg/mL,4,inactive,2,> 100 µM,8 µg/mL,8,2,4 µg/mL,16 µg/mL,0.25 µg/mL,16 µg/mL,IC50 [35]: 72 µM; fold change (FC) [21]: 8; fold change (FC) [22]: 16; IC50 [23]: > 100 µM; fold change (FC) [24]: 2; fold change (FC) [25]: 2; MIC [26]: 8 µg/mL; MIC [27]: 0.25 µg/mL; kcat/Km [28]: 169000 M⁻¹ s⁻¹; Activity [29]: inactive; MIC [30]: 2 µg/mL; MIC [31]: 1 µg/mL; fold change (FC) [32]: 4; fold change (FC) [33]: 2; kcat [34]: 37 s⁻¹
